How the values were obtained:
[1] = system: Beet Armyworm (Spodoptera exigua) ("BAW"), second instar larvae; test: Bioassay on beet armyworm (BAW), 128-well diet tray assay; type: in vivo; details: for pest or weed control at 50 µg/cm2: Spodoptera exigua, read-out: BAW rating; for BAW rating: Table ABC, species BAW, C = not tested, D = no activity noticed
Outline: (§1)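 Read-out: percent larval mortality per well, averaged over 8 wells. Incubation 25° C., 14:10 L:D photoperiod, 5–7 days, trays sealed with clear adhesive cover.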

[2] = system: Cabbage Looper (Trichoplusia ni) ("CL"), second instar larvae; test: Bioassay on cabbage looper (CL), 128-well diet tray assay; type: in vivo; details: for pest or weed control at 50 µg/cm2: Trichoplusia ni, read-out: CL rating; for CL rating: Table ABC, species CL, C = not tested, D = no activity noticed
Outline: as §1

SMILES | pest or weed control at 50 µg/cm2 [1] | pest or weed control at 50 µg/cm2 [2] | BAW rating [1] | CL rating [2]
O=C(/N=C1\SCC(=O)N1c1ccccc1COCC(F)(F)F)Nc1ccc(-n2cnc(-c3ccc(OC(F)(F)F)cc3)n2)cc1Cl [Compound J732, (Z)-1-(2-Chloro-4-(3-(4-(trifluoromethoxy)phenyl)-1H-1,2,4-triazol-1-yl)phenyl)-3-(4-oxo-3-(2-((2,2,2-trifluoroethoxy)methyl)phenyl)thiazolidin-2-ylidene)urea] | 50 to 100% | 50 to 100% | – | –
Cc1cc(COCC(F)(F)F)c(N2C(=O)CS/C2=N\C(=O)Nc2ccc(-n3cnc(-c4ccc(OC(F)(F)F)cc4)n3)cc2Cl)cc1C [Compound J733, (Z)-1-(2-Chloro-4-(3-(4-(trifluoromethoxy)phenyl)-1H-1,2,4-triazol-1-yl)phenyl)-3-(3-(4,5-dimethyl-2-((2,2,2-trifluoroethoxy)methyl)phenyl)-4-oxothiazolidin-2-ylidene)urea] | 50 to 100% | 50 to 100% | – | –
Cc1ccc(OCCC(F)(F)F)c(N2C(=O)CS/C2=N\C(=O)Nc2ccc(-n3cnc(-c4ccc(OC(F)(F)F)cc4)n3)cc2Cl)c1 [Compound J737, (Z)-1-(2-Chloro-4-(3-(4-(trifluoromethoxy)phenyl)-1H-1,2,4-triazol-1-yl)phenyl)-3-(3-(5-methyl-2-(3,3,3-trifluoropropoxy)phenyl)-4-oxothiazolidin-2-ylidene)urea] | 50 to 100% | 50 to 100% | – | –
Cc1cc(COCC(F)(F)F)c(N2C(=O)CS/C2=N\C(=O)Nc2ccc(-c3ncn(-c4cccc(OC(F)(F)F)c4)n3)cc2F)cc1C [Compound J738] | – | – | A (50-100) | A (50-100)
Cc1ccc(-n2cnc(-c3ccc(NC(=O)/N=C4\SCC(=O)N4c4cc(C)ccc4COCC(F)(F)F)c(F)c3)n2)cc1 [Compound J752] | – | – | A (50-100) | A (50-100)
CCOCc1ccc(C)cc1N1C(=O)CS/C1=N\C(=O)Nc1ccc(-c2ncn(-c3ccc(C)cc3)n2)cc1F [Compound J753, (Z)-1-(3-(2-(Ethoxymethyl)-5-methylphenyl)-4-oxothiazolidin-2-ylidene)-3-(2-fluoro-4-(1-(p-tolyl)-1H-1,2,4-triazol-3-yl)phenyl)urea] | 50 to 100% | 50 to 100% | – | –
COc1ccc(-n2cnc(-c3ccc(NC(=O)/N=C4\SCC(=O)N4c4cc(C)ccc4COCC(F)(F)F)c(F)c3)n2)cc1 [Compound J754, (Z)-1-(2-Fluoro-4-(1-(4-methoxyphenyl)-1H-1,2,4-triazol-3-yl)phenyl)-3-(3-(5-methyl-2-((2,2,2-trifluoroethoxy)methyl)phenyl)-4-oxothiazolidin-2-ylidene)urea] | 50 to 100% | 50 to 100% | – | –
CCOCc1ccc(C)cc1N1C(=O)CS/C1=N\C(=O)Nc1ccc(-c2ncn(-c3ccc(OC)cc3)n2)cc1F [Compound J755, (Z)-1-(3-(2-(Ethoxymethyl)-5-methylphenyl)-4-oxothiazolidin-2-ylidene)-3-(2-fluoro-4-(1-(4-methoxyphenyl)-1H-1,2,4-triazol-3-yl)phenyl)urea] | 50 to 100% | 50 to 100% | – | –
COc1ccc(-n2cnc(-c3ccc(NC(=O)/N=C4\SCC(=O)N4c4cc(C)c(C)cc4COCC(F)(F)F)c(F)c3)n2)cc1 [Compound J756, (Z)-1-(3-(4,5-Dimethyl-2-((2,2,2-trifluoroethoxy)methyl)phenyl)-4-oxothiazolidin-2-ylidene)-3-(2-fluoro-4-(1-(4-methoxyphenyl)-1H-1,2,4-triazol-3-yl)phenyl)urea] | 50 to 100% | 50 to 100% | – | –
COc1ccc(-n2cnc(-c3ccc(NC(=O)/N=C4\SCC(=O)N4c4cc(C)ccc4COCC(F)F)c(F)c3)n2)cc1 [Compound J757, (Z)-1-(3-(2-((2,2-Difluoroethoxy)methyl)-5-methylphenyl)-4-oxothiazolidin-2-ylidene)-3-(2-fluoro-4-(1-(4-methoxyphenyl)-1H-1,2,4-triazol-3-yl)phenyl)urea] | 50 to 100% | 50 to 100% | – | –
Cc1ccc(Cc2cccnc2)c(N2C(=O)CS/C2=N\C(=O)Nc2ccc(-c3ncn(-c4ccc(C(F)(F)F)cc4)n3)cc2F)c1 [Compound J758, (Z)-1-(2-Fluoro-4-(1-(4-(trifluoromethyl)phenyl)-1H-1,2,4-triazol-3-yl)phenyl)-3-(3-(5-methyl-2-(pyridin-3-ylmethyl)phenyl)-4-oxothiazolidin-2-ylidene)urea] | 50 to 100% | 50 to 100% | – | –
Cc1ccc(COCC(F)(F)F)c(N2C(=O)CS/C2=N\C(=O)Nc2ccc(-c3ncn(-c4cc(C(F)(F)F)cc(C(F)(F)F)c4)n3)cc2F)c1 [Compound J760, (Z)-1-(4-(1-(3,5-Bis(trifluoromethyl)phenyl)-1H-1,2,4-triazol-3-yl)-2-fluorophenyl)-3-(3-(5-methyl-2-((2,2,2-trifluoroethoxy)methyl)phenyl)-4-oxothiazolidin-2-ylidene)urea] | 50 to 100% | 0 to 50% | – | –
CCOCc1ccc(C)cc1N1C(=O)CS/C1=N\C(=O)Nc1ccc(-c2ncn(-c3cc(C(F)(F)F)cc(C(F)(F)F)c3)n2)cc1F [Compound J761] | – | – | A (50-100) | A (50-100)
CCOCc1ccc(C)cc1N1C(=O)CS/C1=N\C(=O)Nc1ccc(-c2ncn(-c3cc(C(F)(F)F)cc(C(F)(F)F)c3)n2)cc1C [Compound J763, (Z)-1-(4-(1-(3,5-Bis(trifluoromethyl)phenyl)-1H-1,2,4-triazol-3-yl)-2-methylphenyl)-3-(3-(2-(ethoxymethyl)-5-methylphenyl)-4-oxothiazolidin-2-ylidene)urea] | 50 to 100% | 50 to 100% | – | –
Cc1ccc(COCC(F)(F)F)c(N2C(=O)CS/C2=N\C(=O)Nc2ccc(-c3ncn(-c4ccc(OCC(F)(F)F)cc4)n3)cc2F)c1 [Compound J764, (Z)-1-(2-Fluoro-4-(1-(4-(2,2,2-trifluoroethoxy)phenyl)-1H-1,2,4-triazol-3-yl)phenyl)-3-(3-(5-methyl-2-((2,2,2-trifluoroethoxy)methyl)phenyl)-4-oxothiazolidin-2-ylidene)urea] | 50 to 100% | 50 to 100% | – | –
Cc1ccc(COCC(F)(F)F)c(N2C(=O)CS/C2=N\C(=O)Nc2ccc(-c3ncn(-c4ccc(OCC(F)(F)F)nc4)n3)cc2F)c1 [Compound J765, (Z)-1-(2-Fluoro-4-(1-(6-(2,2,2-trifluoroethoxy)pyridin-3-yl)-1H-1,2,4-triazol-3-yl)phenyl)-3-(3-(5-methyl-2-((2,2,2-trifluoroethoxy)methyl)phenyl)-4-oxothiazolidin-2-ylidene)urea] | 50 to 100% | 50 to 100% | – | –
CCOCc1ccc(C)cc1N1C(=O)CS/C1=N\C(=O)Nc1ccc(-c2ncn(-c3ccc(OCC(F)(F)F)cc3)n2)cc1F [Compound J766, (Z)-1-(3-(2-(Ethoxymethyl)-5-methylphenyl)-4-oxothiazolidin-2-ylidene)-3-(2-fluoro-4-(1-(4-(2,2,2-trifluoroethoxy)phenyl)-1H-1,2,4-triazol-3-yl)phenyl)urea] | 50 to 100% | 50 to 100% | – | –

— patent publication US20230077362A1 (CORTEVA AGRISCIENCE LLC, priority 2019, published 2023)
